“And” between values parts separate entries of the source, which are not always exact repeats. Equal values may be shown once.
Tests used:
Format in all cases: in vivo, Wistar rats
[1] = tested on: Rats overdosed with ethanol (experimental model for human ALD); assay: Liver histopathology (liver cell fat rating, fat color rating) in ethanol-fed rats (ALD model); parameters: Liver cell fat rating / Liver cell fat rating, sum / Fat color rating: scale not given here; settings: for Fat color rating: n=10; for Liver cell fat rating: individual animals (ID 1-10); for Liver cell fat rating, sum: sum of 10 animals
Experimental: (§1) 6-week old male rats (Wistar rats) were stabilized and then divided into 5 groups with 10 rats per group (n=10). Rats overdosed with ethanol were used as an experimental model for human ALD. Four groups of rats were fed with ethanol at a dose of 6000 mg/kg BW (50% ethanol at 12 ml/kg BW) per day for 30 days. These four groups were divided into positive control, theaflavin (low), theaflavin (mid), and theaflavin (high). Theaflavin (capsule, Xiayie) was also fed to rat at a dose of 83 mg/kg BW (low), 250 mg/kg (mid), and 500 mg/kg (high). In addition, Fifth group was fed with water as a negative control. Animals were sacrificed after the 30-day study and livers were collected for further analyses.

[2] = Body weight, liver weight and liver/body ratio in ethanol-fed rats (ALD model); settings: ethanol 6000 mg/kg BW per day; for Liver Weight / Liver body ratio: 30 days; for BW (ending): end of 30-day study
Experimental: as §1

[3] = tested on: Rats overdosed with ethanol (experimental model for human ALD); assay: Liver markers MDA, GSH and TG in ethanol-fed rats (ALD model); settings: for GSH / MDA / TG: rat liver, ethanol 30 days
Experimental: as §1
Three liver markers, i.e., malondialdehyde (MDA, a marker of oxidative stress), glutathione (GSH), and triglyceride (TG) were measured.

For O=c1c(O)cc([C@H]2Oc3cc(O)cc(O)c3C[C@H]2O)cc2c([C@H]3Oc4cc(O)cc(O)c4C[C@H]3O)cc(O)c(O)c12 [Theaflavin, theaflavin], the Fat color rating ([1]; 83 mg/kg BW theaflavin) was 1.60 ± 0.70, the Fat color rating ([1]; 250 mg/kg BW theaflavin) was 1.40 ± 0.70 and the Fat color rating ([1]; 500 mg/kg BW theaflavin) was 1.30 ± 0.82. The “Liver cell fat rating” value ([1]; theaflavin (high) 500 mg/kg, 500 mg/kg) was 1 (6×) and 0 and 3 and 2 (2×), the “Liver cell fat rating” value ([1]; theaflavin (low) 83 mg/kg BW, 83 mg/kg) was 1 (5×) and 3 and 2 (4×) and the “Liver cell fat rating” value ([1]; theaflavin (mid) 250 mg/kg, 250 mg/kg) was 1 (4×) and 0 and 2 (5×). For the same molecule, the “Liver cell fat rating, sum” value ([1]; theaflavin (high) 500 mg/kg) was 13, the “Liver cell fat rating, sum” value ([1]; theaflavin (low) 83 mg/kg BW) was 16 and the “Liver cell fat rating, sum” value ([1]; theaflavin (mid) 250 mg/kg) was 14. For the same molecule, the “Fat color rating compared to positive control” value ([1]; theaflavin (high) 500 mg/kg) was “different readings”, the “Liver cell fat rating compared to positive control” value ([1]; theaflavin (high) 500 mg/kg) was “different readings” and the “Fat color rating compared to positive control” value ([1]; theaflavin (mid) 250 mg/kg) was “different readings”. The “Liver cell fat rating compared to positive control” value ([1]; theaflavin (mid) 250 mg/kg) was “different readings”, the “Liver Weight” value ([2]; 83 mg/kg BW theaflavin) was 9.19 ± 0.88 g and the Liver body ratio ([2]; 83 mg/kg BW theaflavin) was 2.79 ± 0.22%. The “BW (ending)” value ([2]; 83 mg/kg BW theaflavin) was 329.1 ± 19.17 g, the “BW (intermediate)” value ([2]; 83 mg/kg BW theaflavin) was 256.1 ± 21.23 g and the “Liver Weight” value ([2]; 250 mg/kg BW theaflavin) was 9.83 ± 1.12 g. The Liver body ratio ([2]; 250 mg/kg BW theaflavin) was 2.86 ± 0.23%, the “BW (ending)” value ([2]; 250 mg/kg BW theaflavin) was 342.9 ± 21.99 g and the “BW (intermediate)” value ([2]; 250 mg/kg BW theaflavin) was 266.3 ± 17.10 g. The “Liver Weight” value ([2]; 500 mg/kg BW theaflavin) was 10.34 ± 1.32 g, the Liver body ratio ([2]; 500 mg/kg BW theaflavin) was 2.84 ± 0.27% and the “BW (ending)” value ([2]; 500 mg/kg BW theaflavin) was 365.2 ± 44.39 g. The “BW (intermediate)” value ([2]; 500 mg/kg BW theaflavin) was 272.3 ± 17.27 g, the GSH ([3]; 83 mg/kg BW theaflavin) was 13.86 ± 1.80 mg/g and the MDA ([3]; 83 mg/kg BW theaflavin) was 1.32 ± 0.13 nmol/mg. The TG ([3]; 83 mg/kg BW theaflavin) was 0.62 ± 0.21 mmol/L, the GSH ([3]; 250 mg/kg BW theaflavin) was 13.91 ± 1.66 mg/g and the MDA ([3]; 250 mg/kg BW theaflavin) was 1.24 ± 0.49 nmol/mg. The TG ([3]; 250 mg/kg BW theaflavin) was 0.65 ± 0.14 mmol/L, the GSH ([3]; 500 mg/kg BW theaflavin) was 14.43 ± 0.69 mg/g and the MDA ([3]; 500 mg/kg BW theaflavin) was 1.23 ± 0.08 nmol/mg. The TG ([3]; 500 mg/kg BW theaflavin) was 0.64 ± 0.13 mmol/L, the “MDA when compared to positive controls” value ([3]; theaflavin (high) 500 mg/kg) was “lower” and the “TG when compared to positive controls” value ([3]; theaflavin (high) 500 mg/kg) was “lower”. For the same molecule, the “MDA when compared to positive controls” value ([3]; theaflavin (mid) 250 mg/kg) was “lower” and the “TG when compared to positive controls” value ([3]; theaflavin (mid) 250 mg/kg) was “lower”.
